Test results published in patent publication US11142515B2, “Pyrazolyl-ureas as kinase inhibitors” (RESPIVERT LIMITED, priority 2014, dated 2021).

Biological target: T1, p38MAPKγ (MAPK12) (Homo sapiens, UniProt P53778)
T1 construct: purchased Life Technologies
T1 sequence (P53778 1-367): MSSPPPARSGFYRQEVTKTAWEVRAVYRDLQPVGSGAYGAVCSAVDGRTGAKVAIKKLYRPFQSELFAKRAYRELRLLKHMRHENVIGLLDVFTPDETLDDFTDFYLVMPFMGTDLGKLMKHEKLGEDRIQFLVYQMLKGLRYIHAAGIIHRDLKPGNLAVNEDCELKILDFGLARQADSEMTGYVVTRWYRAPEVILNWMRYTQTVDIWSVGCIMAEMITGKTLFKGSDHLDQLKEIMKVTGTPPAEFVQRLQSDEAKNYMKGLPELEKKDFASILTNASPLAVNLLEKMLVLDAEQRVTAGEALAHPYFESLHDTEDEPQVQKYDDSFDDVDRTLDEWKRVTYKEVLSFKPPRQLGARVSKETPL
Assay: p38 MAPKγ enzyme inhibition (Z-LYTE FRET)
Assay type: biochemical
Conditions: Table 2B, unit inferred; read-out: p38 MAPKγ (Enzyme Profile)
Description: The enzyme inhibitory activities of compounds disclosed herein were determined by FRET using synthetic peptides labelled with both donor and acceptor fluorophores (Z-LYTE, Life Technologies, Paisley, UK).
The inhibitory activities of compounds of the invention against p38MAPKγ (MAPK12: Life Technologies), were evaluated by determining the level of activation/phosphorylation of the target peptide. The enzyme (800 ng/mL, 2.5 μL) was incubated with the test compound (2.5 μL at either 40 μg/mL, 12 μg/mL, 4 μg/mL, 1.2 μg/mL, 0.4 μg/mL, 0.12 μg/mL, 0.04 μg/mL, 0.012 μg/mL, 0.004 μg/mL or 0.0012 μg/mL) for 2 h at RT. The FRET peptides (8 μM, 2.5 μL), and appropriate ATP solution (2.5 μL, 400 μM) were then added to the enzymes/compound mixtures and incubated for 1 h at RT. Development reagent (protease, 5 μL) was added for 1 h prior to detection in a fluorescence microplate reader (EnVision, Perkin Elmer).
In all cases, the site-specific protease cleaves non-phosphorylated peptide only and eliminates the FRET signal. Phosphorylation levels of each reaction were calculated using the ratio of coumarin emission (donor) over fluorescein emission (acceptor), for which low ratios indicate high phosphorylation and high ratios indicate low phosphorylation levels.

Row | SMILES | IC50
1 | Cc1ccc(-n2nc(C(C)(C)C)cc2NC(=O)Nc2ccc(OCc3ccnc(Nc4cnc(C(=O)NCC(C)(C)N5CCOCC5)cn4)c3)c3ccccc23)cc1 [Example 281, 5-((4-(((4-(3-(3-(tert-butyl)-1-(p-tolyl)-1H-pyrazol-5-yl)ureido)naphthalen-1-yl)oxy)methyl)pyridin-2-yl)amino)-N-(2-methyl-2-morpholinopropyl)pyrazine-2-carboxamide] | 289 nM
2 | CSc1cccc(-n2nc(C(C)(C)C)cc2NC(=O)Nc2ccc(OCc3ccnc(Nc4cnccn4)c3)c3ccccc23)c1 [Example 77] | 106 nM
3 | COC1CCN(CCNC(=O)c2cnc(Nc3cc(COc4ccc(NC(=O)Nc5cc(C(C)(C)C)nn5-c5ccc(C)cc5)c5ccccc45)ccn3)cn2)CC1 [Example 92] | 117 nM
4 | CC(C)(C)c1cc(NC(=O)Nc2ccc(OCc3ccnc(Nc4cnc(CO)cn4)c3)c3ccccc23)n(-c2cccc(F)c2)n1 [Example 253, 1-(3-(tert-butyl)-1-(3-fluoro-phenyl)-1H-pyrazol-5-yl)-3-(4-((2-((5-(hydroxymethyl)pyrazin-2-yl)amino)pyridin-4-yl)methoxy)naphthalen-1-yl)urea] | 75 nM
5 | CO[C@H]1CCCN(CCNC(=O)c2cnc(Nc3cc(COc4ccc(NC(=O)Nc5cc(C(C)(C)C)nn5-c5ccc(C)cc5)c5ccccc45)ccn3)cn2)C1 [Example 54, (S)-5-((4-(((4-(3-(3-(tert-butyl)-1-(p-tolyl)-1H-pyrazol-5-yl)ureido)naphthalen-1-yl)oxy)methyl)pyridin-2-yl)amino)-N-(2-(3-methoxypiperidin-1-yl)ethyl)pyrazine-2-carboxamide] | 150 nM
6 | Cc1ccc(-n2nc(C(C)(C)C)cc2NC(=O)Nc2ccc(OCc3ccnc(Nc4cnc(C(=O)N5CCN6CCC[C@H]6C5)cn4)c3)c3ccccc23)cc1 [Example 275, (S)-1-(3-(tert-butyl)-1-(p-tolyl)-1H-pyrazol-5-yl)-3-(4-((2-((5-(octahydropyrrolo [1,2-a]pyrazine-2-carbonyl)pyrazin-2-yl)amino)pyridin-4-yl)methoxy)naphthalen-1-yl)urea] | 129 nM
7 | Cc1ccc(-n2nc(C(C)(C)C)cc2NC(=O)Nc2ccc(OCc3ccnc(Nc4cnc(C(=O)N[C@@H](C)CN5CCOCC5)cn4)c3)c3ccccc23)cc1 [Example 278, (S)-5-((4-(((4-(3-(3-(tert-butyl)-1-(p-tolyl)-1H-pyrazol-5-yl)ureido)naphthalen-1-yl)oxy)methyl)pyridin-2-yl)amino)-N-(1-morpholinopropan-2-yl) pyrazine-2-carboxamide] | 197 nM
8 | Cc1ccc(-n2nc(C(C)(C)C)cc2NC(=O)Nc2ccc(OCc3ccnc(Nc4cnc(C(=O)NCCN5CCC[C@@H](O)C5)cn4)c3)c3ccccc23)cc1 [Example 95] | 55 nM
9 | Cc1ccc(-n2nc(C(C)(C)C)cc2NC(=O)Nc2ccc(OCc3ccnc(Nc4cnc(C(=O)NCCN5CCC[C@H](F)C5)cn4)c3)c3ccccc23)cc1 [Example 101] | 374 nM
10 | Cc1ccc(-n2nc(C(C)(C)C)cc2NC(=O)Nc2ccc(OCc3ccnc(Nc4cnc(C(=O)NC(C)(C)CN5CCOCC5)cn4)c3)c3ccccc23)cc1 [Example 287, 5-((4-(((4-(3-(3-(tert-butyl)-1-(p-tolyl)-1H-pyrazol-5-yl)ureido)naphthalen-1-yl)oxy)methyl)pyridin-2-yl)amino)-N-(2-methyl-1-morpholinopropan-2-yl) pyrazine-2-carboxamide] | > 12800 nM
11 | Cc1ccc(-n2nc(C(C)(C)C)cc2NC(=O)Nc2ccc(OCc3ccnc(Nc4cnc(C(=O)NCCN5CCC(F)CC5)cn4)c3)c3ccccc23)cc1 [Example 96] | 269 nM
12 | Cc1ccc(-n2nc(C(C)(C)C)cc2NC(=O)Nc2ccc(OCc3ccnc(Nc4cncc(CN5CCOCC5)n4)c3)c3ccccc23)cc1 [Example 285, 1-(3-(tert-butyl)-1-(p-tolyl)-1H-pyrazol-5-yl)-3-(4-((2-((6-(morpholinomethyl)pyrazin-2-yl)amino)pyridin-4-yl)methoxy)naphthalen-1-yl)urea] | 83 nM
13 | Cc1ccc(-n2nc(C(C)(C)C)cc2NC(=O)Nc2ccc(OCc3ccnc(Nc4cnc(C(=O)N5CCCN(C)CC5)cn4)c3)c3ccccc23)cc1 [Example 274, 1-(3-(tert-butyl)-1-(p-tolyl)-1H-pyrazol-5-yl)-3-(4-((2-((5-(4-methyl-1,4-diazepane-1-carbonyl)pyrazin-2-yl)amino)pyridin-4-yl)methoxy)naphthalen-1-yl)urea] | 13 nM
14 | Cc1ccc(-n2nc(C(C)(C)C)cc2NC(=O)Nc2ccc(OCc3ccnc(Nc4cnc(C(=O)NCCN5CCC(O)CC5)cn4)c3)c3ccccc23)cc1 [Example 84] | 67 nM
15 | Cc1ccc(-n2nc(C(C)(C)C)cc2NC(=O)Nc2ccc(OCc3ccnc(Nc4cnc(C(=O)NCCN5CC[C@@H](F)C5)cn4)c3)c3ccccc23)cc1 [Example 100] | 202 nM
16 | CCc1cncc(Nc2cc(COc3ccc(NC(=O)Nc4cc(C(C)(C)C)nn4-c4cc(C)cc(F)c4)c4ccccc34)ccn2)n1 [Example 254, 1-(3-(tert-butyl)-1-(3-fluoro-5-methylphenyl)-1H-pyrazol-5-yl)-3-(4-((2-((6-ethyl-pyrazin-2-yl)amino)pyridin-4-yl)methoxy)naphthalen-1-yl)urea] | 1930 nM
17 | CC(=O)N1CCN(CCNC(=O)c2cnc(Nc3cc(COc4ccc(NC(=O)Nc5cc(C(C)(C)C)nn5-c5ccc(C)cc5)c5ccccc45)ccn3)cn2)CC1 [Example 102] | 46 nM
18 | COc1ccc(-n2nc(C(C)(C)C)cc2NC(=O)Nc2ccc(OCc3ccnc(Nc4cnc(C)c(C)n4)c3)c3ccccc23)cc1F [Example 252, 1-(3-(tert-butyl)-1-(3-fluoro-4-methoxyphenyl)-1H-pyrazol-5-yl)-3-(4-((2-((5,6-dimethylpyrazin-2-yl)amino)pyridin-4-yl)methoxy)naphthalen-1-yl)urea] | > 15100 nM
19 | Cc1ccc(-n2nc(C(C)(C)C)cc2NC(=O)Nc2ccc(OCc3ccnc(Nc4cnc(CN5CCN(C)CC5)cn4)c3)c3ccccc23)cc1 [Example 277, 1-(3-(tert-butyl)-1-(p-tolyl)-1H-pyrazol-5-yl)-3-(4-((2-((5-((4-methylpiperazin-1-yl)methyl)pyrazin-2-yl)amino)pyridin-4-yl)methoxy)naphthalen-1-yl)urea] | 31 nM
20 | CO[C@@H]1CCN(CCNC(=O)c2cnc(Nc3cc(COc4ccc(NC(=O)Nc5cc(C(C)(C)C)nn5-c5ccc(C)cc5)c5ccccc45)ccn3)cn2)C1 [Example 98] | 116 nM
21 | Cc1ccc(-n2nc(C(C)(C)C)cc2NC(=O)Nc2ccc(OCc3ccnc(Nc4cnc(C(=O)NCCCN5CCN(C)CC5)cn4)c3)c3ccccc23)cc1 [Example 280, 5-((4-(((4-(3-(3-(tert-butyl)-1-(p-tolyl)-1H-pyrazol-5-yl)ureido)naphthalen-1-yl)oxy)methyl)pyridin-2-yl)amino)-N-(3-(4-methyl-piperazin-1-yl)propyl) pyrazine-2-carboxamide] | 31 nM
22 | Cc1ccc(-n2nc(C(C)(C)C)cc2NC(=O)Nc2ccc(OCc3ccnc(Nc4cnc(C(=O)NCCn5ccnc5C)cn4)c3)c3ccccc23)cc1 [Example 90] | 83 nM
23 | CCCc1cncc(Nc2cc(COc3ccc(NC(=O)Nc4cc(C(C)(C)C)nn4-c4cccc(F)c4)c4ccccc34)ccn2)n1 [Example 255, 1-(3-(tert-butyl)-1-(3-fluoro-phenyl)-1H-pyrazol-5-yl)-3-(4-((2-((6-propylpyrazin-2-yl)amino)pyridin-4-yl)methoxy)naphthalen-1-yl) urea] | > 15500 nM
24 | Cc1ccc(-n2nc(C(C)(C)C)cc2NC(=O)Nc2ccc(OCc3ccnc(Nc4cnc(C(=O)NCCN5CC[C@@H](O)C5)cn4)c3)c3ccccc23)cc1 [Example 97] | 34 nM
25 | Cc1ccc(-n2nc(C(C)(C)C)cc2NC(=O)Nc2ccc(OCc3ccnc(Nc4cnc(C(=O)NCCCN5CCOCC5)cn4)c3)c3ccccc23)cc1 [Example 279, 5-((4-(((4-(3-(3-(tert-butyl)-1-(p-tolyl)-1H-pyrazol-5-yl)ureido)naphthalen-1-yl)oxy)methyl)pyridin-2-yl)amino)-N-(3-morpholino-propyl)pyrazine-2-carboxamide] | 116 nM
26 | Cc1ccc(-n2nc(C(C)(C)C)cc2NC(=O)Nc2ccc(OCc3ccnc(Nc4cnc(C(=O)NCCN5C[C@@H](C)O[C@@H](C)C5)cn4)c3)c3ccccc23)cc1 [Example 85] | 166 nM
27 | COC(=O)N1CCN(CCNC(=O)c2cnc(Nc3cc(COc4ccc(NC(=O)Nc5cc(C(C)(C)C)nn5-c5ccc(C)cc5)c5ccccc45)ccn3)cn2)CC1 [Example 91] | 176 nM
28 | COCCN1CCC(NC(=O)c2cnc(Nc3cc(COc4ccc(NC(=O)Nc5cc(C(C)(C)C)nn5-c5ccc(C)cc5)c5ccccc45)ccn3)cn2)CC1 [Example 282, 5-((4-(((4-(3-(3-(tert-butyl)-1-(p-tolyl)-1H-pyrazol-5-yl)ureido)naphthalen-1-yl)oxy)methyl)pyridin-2-yl)amino)-N-(1-(2-methoxy-ethyl)piperidin-4-yl) pyrazine-2-carboxamide] | 62 nM
